This passage reports IC50 results from patent EP4659764A1, “LINKER DRUG, AND PREPARATION METHOD AND USE OF ANTIBODY-DRUG CONJUGATE THEREOF” (Lepu Biopharma Co., Ltd., priority 2023, dated 2024).

The assay relates to SKBR3 (breast cancer cell line). The experiment in a line: In vitro cell killing activity of ADCs, SKBR3. It is filed as cell-based. The conditions noted are these: Homo sapiens, SK-BR-3, incubation 72 hours, ADC DAR 8.0. From the text:
Referring to the process of Example 13, the linker-drug conjugate mc-AAN-Exatecan was conjugated to a HER2 antibody, an EGFR antibody, and a non-specific binding antibody (Anti-HEL) respectively to prepare the corresponding ADCs. […] The cell killing activity was detected.

As for `CC[C@@]1(O)C(=O)OCc2c1cc1n(c2=O)Cc2c-1nc1cc(F)c(C)c3c1c2[C@@H](N)CC3` [Extecan, Exatecan], the IC50 – broadly, the midpoint of a concentration-inhibition curve – was 2.02 nM.
